The target in one test is Cytochrome P450 2C9 (Homo sapiens, UniProt P11712).
The target of test [1] is T1, Heat shock factor protein 1 (Mus musculus, UniProt P38532).
T1 sequence (P38532 whole entry): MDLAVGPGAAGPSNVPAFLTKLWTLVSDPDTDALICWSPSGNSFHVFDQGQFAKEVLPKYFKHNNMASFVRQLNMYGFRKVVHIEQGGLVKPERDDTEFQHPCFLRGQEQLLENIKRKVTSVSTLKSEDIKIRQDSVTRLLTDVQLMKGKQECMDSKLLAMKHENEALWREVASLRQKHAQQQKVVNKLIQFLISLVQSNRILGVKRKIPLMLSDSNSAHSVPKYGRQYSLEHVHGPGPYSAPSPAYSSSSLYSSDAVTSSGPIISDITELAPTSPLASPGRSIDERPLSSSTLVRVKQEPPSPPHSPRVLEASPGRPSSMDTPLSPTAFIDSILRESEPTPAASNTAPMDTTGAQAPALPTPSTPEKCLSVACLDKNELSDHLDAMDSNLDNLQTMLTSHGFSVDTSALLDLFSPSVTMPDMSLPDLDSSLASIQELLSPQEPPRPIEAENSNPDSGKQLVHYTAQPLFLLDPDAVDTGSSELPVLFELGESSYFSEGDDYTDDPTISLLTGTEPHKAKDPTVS
Put plainly: enhancement of HSF1-driven luciferase signal – cell-based, NIH3T3, luminescence, dose retest, confirmation (AID 435004).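 Further: stress induced by proteasome inhibitor MG132 added 30 min after compound; luciferase reporter driven by HSF1 response element in NIH3T3 cells; actives raise luminescence as potentiators of the MG132 stress response.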 It is filed as functional.

Test [2] in a line: Trypanosoma cruzi growth suppression in host cells – NIH3T3 host cells, beta-gal luminescence, confirmation (AID 2044).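 Further: intracellular parasites grown in NIH/3T3 mouse fibroblasts as host cells; luminescent beta-galactosidase reporter signal from transgenic T. cruzi replicating inside host cells; inhibitors lower the luminescence signal.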 It is filed as functional, cell-based.
The nature of test [3]: NIH3T3 cell viability loss – ATP luminescence, mouse fibroblasts, counter-screen, dose response (AID 2010).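 Further: cells exposed to compound for about 90 hours before reading.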 It is filed as functional, cell-based. (A counterscreen serves to expose hits that act by an unwanted route or on another target.)
A further test deals with Cytochrome P450 2C19 (Homo sapiens, UniProt P33261). The experiment in a line: Cytochrome panel assay with activity outcomes. Panel member name: p450-cyp2c19 Compounds with AC50 equal or less than 10 uM are considered active. In kind it is functional. The conditions noted are these: read-out: AC50.
Sequence of Cytochrome P450 2C19 (P33261 whole entry): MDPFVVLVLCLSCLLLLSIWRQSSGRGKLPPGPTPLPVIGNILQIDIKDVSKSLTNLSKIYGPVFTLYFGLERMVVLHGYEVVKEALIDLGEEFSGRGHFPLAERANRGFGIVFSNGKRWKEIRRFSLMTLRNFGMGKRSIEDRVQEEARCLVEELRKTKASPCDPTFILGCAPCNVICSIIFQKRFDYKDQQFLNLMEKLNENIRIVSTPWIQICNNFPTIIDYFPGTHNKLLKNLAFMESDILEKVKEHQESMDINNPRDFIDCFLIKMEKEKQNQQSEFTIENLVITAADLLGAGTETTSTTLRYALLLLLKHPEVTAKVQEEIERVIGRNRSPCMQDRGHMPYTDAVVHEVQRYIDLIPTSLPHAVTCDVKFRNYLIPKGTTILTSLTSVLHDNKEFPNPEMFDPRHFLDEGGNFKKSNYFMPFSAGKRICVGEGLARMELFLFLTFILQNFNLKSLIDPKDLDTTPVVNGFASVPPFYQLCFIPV
The test system of test [4] is Streptococcus sp. 'group A'. Put plainly: Streptococcus pyogenes SK(-)GAS viability under kanamycin – luminescence, BacTiterGlo, confirmation, counter-screen for streptokinase expression inhibitor project, dose response (AID 1900). In kind it is functional, organism-based.
The next test deals with Streptococcus. Put plainly: GAS UMAA2166 growth inhibition – luminescence, BacTiterGlo, counter-screen for streptokinase expression inhibitor project, dose response (AID 1915).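 Further: potency for reduction of bacterial viability or growth.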 In kind it is functional, organism-based.
The target of a further test is Cytochrome P450 3A4 (Homo sapiens, UniProt P08684).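 Further: CYP3A4 tested as one member of a cytochrome P450 panel screen.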
Sequence of Cytochrome P450 3A4 (P08684 whole entry): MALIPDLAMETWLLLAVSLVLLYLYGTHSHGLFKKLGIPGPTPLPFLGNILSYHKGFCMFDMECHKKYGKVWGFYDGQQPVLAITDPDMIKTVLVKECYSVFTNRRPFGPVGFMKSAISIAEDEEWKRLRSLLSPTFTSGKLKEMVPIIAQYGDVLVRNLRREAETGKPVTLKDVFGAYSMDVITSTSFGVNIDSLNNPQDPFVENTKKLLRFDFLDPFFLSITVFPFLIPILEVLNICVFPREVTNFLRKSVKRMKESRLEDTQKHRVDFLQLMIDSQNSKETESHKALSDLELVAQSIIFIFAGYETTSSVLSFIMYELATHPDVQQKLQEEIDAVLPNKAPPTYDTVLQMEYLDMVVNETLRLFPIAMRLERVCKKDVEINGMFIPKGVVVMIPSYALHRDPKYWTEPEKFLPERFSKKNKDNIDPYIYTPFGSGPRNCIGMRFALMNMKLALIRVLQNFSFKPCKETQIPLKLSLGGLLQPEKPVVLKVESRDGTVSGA

Active and inactive are the calls of the source. A value given as a limit tells only on which side of the number the result lay.

Sequence of Cytochrome P450 2C9 (P11712 whole entry): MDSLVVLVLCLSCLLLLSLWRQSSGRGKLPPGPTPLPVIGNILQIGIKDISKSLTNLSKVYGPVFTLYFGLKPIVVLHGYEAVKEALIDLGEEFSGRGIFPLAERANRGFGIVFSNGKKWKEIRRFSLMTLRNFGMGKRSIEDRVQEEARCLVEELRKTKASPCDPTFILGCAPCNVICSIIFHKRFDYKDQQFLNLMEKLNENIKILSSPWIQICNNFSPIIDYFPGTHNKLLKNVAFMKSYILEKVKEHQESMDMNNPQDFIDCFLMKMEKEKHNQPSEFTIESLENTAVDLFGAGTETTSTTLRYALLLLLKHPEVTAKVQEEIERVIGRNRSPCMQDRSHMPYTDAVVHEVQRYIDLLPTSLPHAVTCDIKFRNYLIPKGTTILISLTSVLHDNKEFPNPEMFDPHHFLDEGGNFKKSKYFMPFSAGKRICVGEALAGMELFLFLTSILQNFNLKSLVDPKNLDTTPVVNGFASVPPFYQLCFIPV

Consider `Clc1ccccc1-c1nc(NCc2cccs2)c2ccccc2n1`, for which, on Cytochrome P450 2C9, the AC50 (usually the concentration giving half of the maximal activity seen) was 0.794 µM (inconclusive). Turning to `Cc1ccc2[nH]c(SCC(=O)Nc3cccc(S(=O)(=O)NC4=NCCCCC4)c3)nc2c1`, the EC50 (usually the midpoint of the concentration-response curve) in test [1] is > 260 µM (inactive). `Cc1oc(C(C)(C)C)cc1C(=O)Nc1cccc(/C=C/C(=O)O)c1`: the AC50 on Cytochrome P450 2C9 was 4.47 µM (inconclusive). For the compound `N=C(N)NS(=O)(=O)c1ccc(NC(=S)NC(=O)c2ccc(Br)cc2)cc1`, in test [1], the EC50 was > 260 µM (inactive). With `CCC(C)n1c(SCC(=O)NC(=O)Nc2ccc3c(c2)OCCO3)nc2ccccc2c1=O` (centres undefined), the EC50 is 2.2 µM (active) in test [2], > 60 µM (not active) in test [3] and > 260 µM (inactive) in test [1]. For the compound `Nc1nc(S)nc2c1C1(CCCC1)Cc1ccccc1-2`, the concentration at half-maximal activity (AC50) on Cytochrome P450 2C19 was 11.2 µM (inconclusive); on Cytochrome P450 2C9 it was 0.355 µM (inconclusive). As to `Cc1cc(-c2c(C)[nH]n(-c3ccc(Cl)cc3)c2=O)[nH]n1`, the EC50 in test [4] is 2.51 µM (active); in the test on Streptococcus, > 150 µM (not active). In the case of `CCOC(=O)c1c(-c2ccc(C)cc2)cn2ccccc12`, the EC50 in test [1] is > 260 µM (inactive).

`COCCNC(=O)c1cccc(OC2CCN(Cc3ccc(Cl)c(F)c3)CC2)c1`: the EC50 in test [1] is > 260 µM (inactive). For the compound `Cc1cc(-c2ccc(C(C)C)c(S(=O)(=O)NCCN3CCC(C)CC3)c2)on1`, in test [1], the EC50 was > 260 µM (inactive). `Clc1ccc(CCNc2nc3ccccc3s2)cc1`: the AC50 at Cytochrome P450 2C9 is 12.6 µM (inconclusive). Turning to `O=C1CCN(Cc2ccccc2)N1`, the EC50 in test [1] is > 260 µM (inactive). On the same count and under the same terms, in the case of `CCOc1ccccc1CN1CCN(Cc2cn(C)nc2-c2ccccc2)CC1CCO` (centres undefined) it was > 260 µM (inactive).

For the compound `CCOCCCn1cnc2c3ccc(OC)cc3nc-2c1O`, the concentration at half-maximal activity (AC50) at Cytochrome P450 2C9 was 39.8 µM (inconclusive). Take `CCNc1ncc2nc(-c3ccccc3)c(=O)n(CCOC)c2n1`: the AC50 at Cytochrome P450 2C19 is 31.6 µM (inconclusive); on Cytochrome P450 2C9, 20 µM (inconclusive); on Cytochrome P450 3A4, 31.6 µM (inconclusive). Turning to `CCC(=O)N1CCN(c2ccc(NC(=O)COc3ccc(C)cc3C)cc2)CC1`, the EC50 in test [1] was > 260 µM (inactive). In the case of `Cc1cc(C)c(S(=O)(=O)N2CCN(c3ccc([N+](=O)[O-])c(NCc4ccco4)c3)CC2)c(C)c1`, the AC50 at Cytochrome P450 2C19 was 0.708 µM (inconclusive); on Cytochrome P450 2C9, 0.562 µM (inconclusive). `Cc1cc(C)n(Cc2ccc(Cl)cc2Cl)c(=O)c1S(=O)(=O)c1ccccc1`: in test [1], the EC50 is > 260 µM (inactive). On to `COc1cc(C(=O)OCC(=O)Nc2cc(C)on2)cc(OC)c1OC`, for which the AC50 at Cytochrome P450 2C9 was 0.0447 µM (inconclusive); at Cytochrome P450 3A4, 15.8 µM (inconclusive). For `O=C(NCCN1Cc2ccccc2C1=O)c1cccs1`, the EC50 in test [1] was > 260 µM (inactive). On to `CC(C)NC(=O)N1CC[C@@]2(CCCN(S(C)(=O)=O)C2)C1`, for which the AC50 was 39.8 µM (inconclusive) at Cytochrome P450 2C19 and 25.1 µM (inconclusive) on Cytochrome P450 2C9. For the compound `N#CCCn1c(=O)c(-c2cccs2)nc2cnc(OCc3ccccc3)nc21`, the AC50 on Cytochrome P450 2C9 was 1.58 µM (inconclusive). As for `CCc1cc2c(=O)c(-c3nc4ccccc4[nH]3)coc2cc1OC(=O)N1CCOCC1`, the results for the half-maximal activity concentration (AC50) on Cytochrome P450 2C9 and at Cytochrome P450 3A4 were 8.91 µM (inconclusive) and 5.01 µM (inconclusive), respectively.

Consider `COCCCNC(=O)c1c(NC(=O)c2cccs2)sc2c1CCCC2`, for which the concentration at half-maximal activity (AC50) at Cytochrome P450 2C19 was 4.47 µM (inconclusive); on Cytochrome P450 2C9, 0.562 µM (inconclusive). As to `COc1ccc2[nH]cc(CCNc3ccnc(-c4ccccc4Cl)n3)c2c1`, on Cytochrome P450 2C9, the AC50 was 1 µM (inconclusive). For `N=c1sccn1CC(=O)Nc1cc(Cl)ccc1Oc1ccccc1`, the EC50 in test [1] was > 260 µM (inactive). Still for that read-out and setting: under `N#C/C(C(=O)NCc1ccccc1)=C1/N=C(NC(=O)c2ccco2)c2ccccc21` stands > 260 µM (inactive); under `CCN(C(=O)c1cccc(S(=O)(=O)N2CCCCC2)c1)C1CCS(=O)(=O)C1` (centres undefined), > 260 µM (inactive).

For the origin of these results see ChEMBL document CHEMBL1201862, “PubChem BioAssay data set” (2004).
